Test results as given in paper PMC7029851, “Antibacterial activity of novel dual bacterial DNA type II topoisomerase inhibitors” (PLoS ONE, 2020).
Converted amounts (≈) assume the structure as drawn. Like-named read-outs stand apart in the source and are kept apart here.

Tests used:
S. aureus ATCC 29213 [1] = test: Time-kill assay; assay type: cell-based, Staphylococcus aureus
Description: (§1) Time-kill experiments were performed according to the procedure reported by Knapp. […] A drug-free control was included in each experiment. The bacterial cultures were standardized to obtain an initial inoculum that ranged from 5×10^5 to 5×10^6 CFU/ml. The cultures were incubated at 37°C in a shaking bath. At 0, 2, 4, 8 and 24-hour intervals, viable counts were performed by spotting (in triplicate) 10 μl aliquots of suitable dilutions of the cultures onto Mueller-Hinton agar (MHA, Oxoid, Basingstoke, UK) plates. After incubation at 37°C for 24 hours, the bactericidal activity, namely, the ability to reduce the initial inoculum by 3 log10 CFU/ml, was assessed for each tested concentration over time.

S. aureus ATCC BAA-1720 = test: Time-kill assay; assay type: cell-based, Staphylococcus aureus
Description: as §1

[2] = system: A. baumannii clinical isolates (n = 10); test: microbe, parasite or virus in culture; assay type: cell-based, Acinetobacter baumannii
Description: (§2) The bacterial reference strains used in this study were purchased from ATCC (American Type Culture Collection) via LGC Standards (Middlesex, UK). […] Clinical MDR isolates were provided by Aptuit, the IHMA Europa Sàrl repository (Epalinges, Switzerland) and the Statens Serum Institute (Copenhagen, Denmark).
(§3) MICs were determined by the broth microdilution method (the agar dilution method was used only for N. gonorrhoeae) according to CLSI guidelines.
(§4) The results obtained using clinical isolates are reported as MIC50 and MIC90 values.

hERG channel = target: T1, hERG channel (Homo sapiens, UniProt Q12809); test: hERG automated patch clamp assay; assay type: cell-based; conditions: CHO-K1, read-out: IC50 against hERG channels
T1 construct: expressed in transfected cells; host or cells: CHO-K1
T1 sequence (Q12809 whole entry): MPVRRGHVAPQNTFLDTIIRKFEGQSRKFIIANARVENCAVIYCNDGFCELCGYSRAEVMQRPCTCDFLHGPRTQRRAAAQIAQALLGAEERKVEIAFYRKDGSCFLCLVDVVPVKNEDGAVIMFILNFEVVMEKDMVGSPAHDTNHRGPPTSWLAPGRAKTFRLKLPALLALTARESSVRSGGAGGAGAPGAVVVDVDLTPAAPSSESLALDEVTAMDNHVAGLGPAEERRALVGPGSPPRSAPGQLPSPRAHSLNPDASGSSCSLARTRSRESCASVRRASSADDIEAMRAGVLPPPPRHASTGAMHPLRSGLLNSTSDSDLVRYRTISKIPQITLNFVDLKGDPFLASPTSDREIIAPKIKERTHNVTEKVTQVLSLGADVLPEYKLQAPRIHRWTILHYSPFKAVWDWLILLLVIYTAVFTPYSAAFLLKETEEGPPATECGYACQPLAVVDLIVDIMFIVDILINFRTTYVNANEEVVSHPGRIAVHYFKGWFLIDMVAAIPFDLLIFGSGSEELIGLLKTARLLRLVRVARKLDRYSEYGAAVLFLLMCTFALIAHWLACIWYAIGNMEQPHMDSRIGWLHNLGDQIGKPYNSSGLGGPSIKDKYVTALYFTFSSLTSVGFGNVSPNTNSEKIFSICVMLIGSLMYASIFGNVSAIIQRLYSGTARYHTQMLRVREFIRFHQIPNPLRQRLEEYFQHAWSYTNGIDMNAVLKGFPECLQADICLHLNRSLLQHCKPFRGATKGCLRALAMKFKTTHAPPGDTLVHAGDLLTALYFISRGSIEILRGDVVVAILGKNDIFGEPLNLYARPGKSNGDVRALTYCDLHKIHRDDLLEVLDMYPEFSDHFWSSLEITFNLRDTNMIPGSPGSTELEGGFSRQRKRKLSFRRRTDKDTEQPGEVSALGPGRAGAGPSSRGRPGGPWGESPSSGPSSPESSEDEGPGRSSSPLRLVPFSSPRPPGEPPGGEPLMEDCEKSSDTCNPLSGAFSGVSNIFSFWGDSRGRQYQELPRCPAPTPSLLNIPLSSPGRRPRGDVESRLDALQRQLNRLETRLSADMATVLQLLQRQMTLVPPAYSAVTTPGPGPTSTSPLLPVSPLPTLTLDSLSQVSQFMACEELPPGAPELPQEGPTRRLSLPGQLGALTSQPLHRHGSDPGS
Source text: hERG automated patch clamp assay. The human recombinant ERG CHO-K1 cell line was used in an automated patch clamp assay (qPatch system) to evaluate the hERG channel blockade potential of compounds 1 and 2 [36]. Concentration (log) response curves were fitted to a logistic equation to generate estimates of the 50% inhibitory value.

[3] = system: S. aureus clinical isolates (n = 10); test: microbe, parasite or virus in culture; assay type: cell-based, Staphylococcus aureus
Description: as §2, §3, §4

A. baumannii APV00473 = test: MIC, broth microdilution; assay type: cell-based; conditions: Acinetobacter baumannii; A. baumannii APV00473, ciprofloxacin-resistant
Description: as §3

E. coli 4SI = test: MIC, broth microdilution; assay type: cell-based; conditions: Escherichia coli, ciprofloxacin-resistant
Description: as §3

S. pyogenes APV00083 = test: MIC, broth microdilution; assay type: cell-based; conditions: Streptococcus pyogenes; S. pyogenes APV00083, ciprofloxacin-susceptible
Description: as §3

S. pyogenes APV00074 = test: MIC, broth microdilution; assay type: cell-based; conditions: Streptococcus pyogenes; S. pyogenes APV00074, ciprofloxacin-susceptible
Description: as §3

A. baumannii ATCC 19606 = test: MIC, broth microdilution; assay type: cell-based; conditions: Acinetobacter baumannii, ATCC19606; A. baumannii ATCC 19606, ciprofloxacin-susceptible
Description: as §3

[4] = system: H. influenzae AcrA- mutant; test: microbe, parasite or virus in culture; assay type: cell-based; conditions: Haemophilus influenzae
Method in brief: (§5)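 MICs against efflux-deficient mutant strains were determined by broth microdilution following CLSI guidelines.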

[5] = system: K. pneumoniae AcrAB- mutant; test: microbe, parasite or virus in culture; assay type: cell-based; conditions: Klebsiella pneumoniae
Method in brief: as §5

[6] = system: C. difficile clinical isolates (n = 21); test: MIC, multidrug-resistant clinical isolates; assay type: cell-based, Clostridium difficile; conditions: Clostridioides difficile, C. difficile clinical isolates (n = 21)
Description: as §2, §3, §4

[7] = system: HepG2 mammalian cell line; test: Cytotoxicity assay (CellTiter-Blue); assay type: cell-based; conditions: Homo sapiens, HepG2, 24 hours of incubation, read-out: IC50 mammalian cell viability
Description: Cytotoxicity assay. Cytotoxicity of compounds 1 and 2 was assessed, after 24 hours of incubation in EMEM containing 10% fetal bovine serum, HepG2 mammalian cell line viability was evaluated using CellTiter-Blue Cell Viability Assay (Promega, WI, USA) according to the manufacturer’s instructions. Concentration-response curves were obtained by non-linear regression analysis using the GraphPad PRISM 6 software.

[8] = system: E. coli clinical isolates (n = 36); test: MIC, multidrug-resistant clinical isolates; assay type: cell-based, Escherichia coli; conditions: Escherichia coli, E. coli MDR clinical isolates (n = 36)
Description: as §2, §3, §4

S. aureus ATCC 29213 [9] = test: Minimal bactericidal concentration; assay type: cell-based, Staphylococcus aureus
Description: (§6) Minimal bactericidal concentrations (MBCs) were determined according to the procedure described by Knapp. Viable counts were performed after plates were incubated at 37°C for 24 hours. The MBC was defined as the lowest concentration that reduced the viability of the initial bacterial inoculum by ≥99.9%.

S. aureus BAA-1720 = test: Minimal bactericidal concentration; assay type: cell-based, Staphylococcus aureus
Description: as §6

C. difficile ATCC 700057 = test: MIC, broth microdilution; assay type: cell-based, Clostridium difficile; conditions: Clostridioides difficile, ATCC700057
Description: MICs were determined by the broth microdilution method (the agar dilution method was used only for N. gonorrhoeae) according to CLSI guidelines. […] The MIC values of antibiotics used in clinical practice were interpreted according to the susceptibility interpretive criteria reported in the appropriate CLSI Tables (M100-S25, CLSI, 2015).

E. coli ATCC 25922 [10] = test: Minimal bactericidal concentration; assay type: cell-based, Escherichia coli
Description: as §6

E. coli ATCC 25922 [11] = test: Time-kill assay; assay type: cell-based, Escherichia coli; conditions: 1× to 4× MIC, over 24 hours
Description: as §1

[12] = S. aureus MDR clinical isolates (n = 10)

O=C1COc2ncc(F)cc2N1[C@H]1CC[C@H](NCc2cc3c(=O)oc4ccc(F)cc4c3[nH]2)CC1 [Compound 1, 8-fluoro-2-({[trans-4-(7-fluoro-2-oxo-2,3-dihydro-1H-pyrido[2,3-b][1,4]oxazin-1-yl)cyclohexyl]amino}methyl)[1]benzopyrano[4,3-b]pyrrol-4(1H)-one]
Bactericidal activity in time-kill (reduction of 3 log10 CFU/ml) (S. aureus ATCC 29213 [1]; 1× to 4× MIC (compound 1 also 8× and 16× MIC), over 24 hours): bactericidal effect
Bactericidal activity in time-kill (S. aureus ATCC 29213 [1]; 8× and 16× MIC, after 24 hour incubation): effective
Bactericidal activity in time-kill (S. aureus ATCC 29213 [1]; concentrations up to 4× MIC): no bactericidal activity
Bactericidal activity in time-kill (reduction of 3 log10 CFU/ml) (S. aureus ATCC BAA-1720; 1× to 4× MIC, over 24 hours): bactericidal effect
Concentration with bactericidal activity in time-kill (S. aureus ATCC BAA-1720; 4× MIC, after a 24 hour incubation): 2 µg/mL
MIC range [2]: ≤0.06 to 0.12 mg/L
MIC50 ([2]; Acinetobacter baumannii): 0.12 mg/L (≈ 0.25 µM)
MIC90 ([2]; Acinetobacter baumannii): 0.12 mg/L (≈ 0.25 µM)
IC50 (hERG channel): 8.9 µM
MIC50 [3, 12]: 0.125 mg/L (≈ 0.26 µM)
MIC90 [3, 12]: 0.5 mg/L (≈ 1.04 µM)
MIC range [3, 12]: 0.12 to 0.5 mg/L
MIC ([3]; Staphylococcus aureus, MRSA, S. aureus APV0063, MRSA): 0.12 mg/L (≈ 0.25 µM)
MIC ([3]; Staphylococcus aureus, MRSA, S. aureus APV0064, MRSA): 0.12 mg/L (≈ 0.25 µM)
MIC ([3]; Staphylococcus aureus, MRSA, S. aureus APV0065, MRSA): 0.12 mg/L (≈ 0.25 µM)
MIC ([3]; Staphylococcus aureus, S. aureus APV00045, M (macrolide resistance)): 0.5 mg/L (≈ 1.04 µM)
MIC ([3]; Staphylococcus aureus, S. aureus APV0048, MLSi): 0.25 mg/L (≈ 0.52 µM)
MIC ([3]; Staphylococcus aureus, S. aureus APV0049, MLSi): 0.5 mg/L (≈ 1.04 µM)
MIC ([3]; Staphylococcus aureus, S. aureus APV0052, MLSc): 0.5 mg/L (≈ 1.04 µM)
MIC ([3]; Staphylococcus aureus, S. aureus APV0053, MLSc): 0.25 mg/L (≈ 0.52 µM)
MIC ([3]; Staphylococcus aureus, S. aureus APV00280, M (macrolide resistance)): 0.12 mg/L (≈ 0.25 µM)
MIC ([3]; Staphylococcus aureus, S. aureus APV00281, M (macrolide resistance)): 0.12 mg/L (≈ 0.25 µM)
MIC50 ([3]; Staphylococcus aureus, S. aureus MDR clinical isolates (n = 10), read-out: MIC50): 0.12 mg/L (≈ 0.25 µM)
MIC90 ([3]; Staphylococcus aureus, S. aureus MDR clinical isolates (n = 10), read-out: MIC90): 0.5 mg/L (≈ 1.04 µM)
MIC (A. baumannii APV00473): ≤ 0.06 mg/L
MIC (E. coli 4SI): 0.25 mg/L (≈ 0.52 µM)
MIC (S. pyogenes APV00083): 1 mg/L (≈ 2.08 µM)
MIC (S. pyogenes APV00074): 0.5 mg/L (≈ 1.04 µM)
MIC (A. baumannii ATCC 19606): ≤ 0.06 mg/L
MIC [4]: ≤ 0.016 mg/L
MIC [5]: 0.03 mg/L (≈ 0.0624 µM)
MIC50 ([6]; read-out: MIC50): 1 mg/L (≈ 2.08 µM)
MIC90 ([6]; read-out: MIC90): 1 mg/L (≈ 2.08 µM)
MIC ([6]; read-out: MIC range): 0.25 to 2 mg/L (≈ 0.52 to 4.16 µM)
IC50 [7]: 9 µM
IC50 ([7]; same value in μg/ml): 4 mg/L
MIC [8]: 0.25 to 16 mg/L (≈ 0.52 to 33.3 µM)
MIC50 ([8]; read-out: MIC50): 1 mg/L (≈ 2.08 µM)
MIC90 ([8]; read-out: MIC90): 1 mg/L (≈ 2.08 µM)
MBC/MIC (S. aureus ATCC 29213 [9]): 16
MBC (S. aureus ATCC 29213 [9]; Staphylococcus aureus, ATCC29213, ≥99.9% reduction of inoculum): 4 mg/L (≈ 8.33 µM)
MBC/MIC (S. aureus BAA-1720): 2
MBC (S. aureus BAA-1720; Staphylococcus aureus, BAA1720, ≥99.9% reduction of inoculum): 1 mg/L (≈ 2.08 µM)
MIC (C. difficile ATCC 700057): 1 mg/L (≈ 2.08 µM)
MBC/MIC (E. coli ATCC 25922 [10]): 2
MBC (E. coli ATCC 25922 [10]; Escherichia coli, ATCC25922, ≥99.9% reduction of inoculum): 1 mg/L (≈ 2.08 µM)
Bactericidal activity in time-kill (reduction of 3 log10 CFU/ml) (E. coli ATCC 25922 [11]): bactericidal effect
